According to publication PMC8213057, “Targeting ALK2: An Open Science Approach to Developing Therapeutics for the Treatment of Diffuse Intrinsic Pontine Glioma” (Journal of Medicinal Chemistry, 2020):

Tests used:
[1] = molecular target: T1, GLK/MAP4K3 (Homo sapiens, UniProt Q8IVH8); experiment: biochemical; settings: read-out: % enzyme activity, 1 μM; Run 1, Run 2
T1 sequence (Q8IVH8 1-894): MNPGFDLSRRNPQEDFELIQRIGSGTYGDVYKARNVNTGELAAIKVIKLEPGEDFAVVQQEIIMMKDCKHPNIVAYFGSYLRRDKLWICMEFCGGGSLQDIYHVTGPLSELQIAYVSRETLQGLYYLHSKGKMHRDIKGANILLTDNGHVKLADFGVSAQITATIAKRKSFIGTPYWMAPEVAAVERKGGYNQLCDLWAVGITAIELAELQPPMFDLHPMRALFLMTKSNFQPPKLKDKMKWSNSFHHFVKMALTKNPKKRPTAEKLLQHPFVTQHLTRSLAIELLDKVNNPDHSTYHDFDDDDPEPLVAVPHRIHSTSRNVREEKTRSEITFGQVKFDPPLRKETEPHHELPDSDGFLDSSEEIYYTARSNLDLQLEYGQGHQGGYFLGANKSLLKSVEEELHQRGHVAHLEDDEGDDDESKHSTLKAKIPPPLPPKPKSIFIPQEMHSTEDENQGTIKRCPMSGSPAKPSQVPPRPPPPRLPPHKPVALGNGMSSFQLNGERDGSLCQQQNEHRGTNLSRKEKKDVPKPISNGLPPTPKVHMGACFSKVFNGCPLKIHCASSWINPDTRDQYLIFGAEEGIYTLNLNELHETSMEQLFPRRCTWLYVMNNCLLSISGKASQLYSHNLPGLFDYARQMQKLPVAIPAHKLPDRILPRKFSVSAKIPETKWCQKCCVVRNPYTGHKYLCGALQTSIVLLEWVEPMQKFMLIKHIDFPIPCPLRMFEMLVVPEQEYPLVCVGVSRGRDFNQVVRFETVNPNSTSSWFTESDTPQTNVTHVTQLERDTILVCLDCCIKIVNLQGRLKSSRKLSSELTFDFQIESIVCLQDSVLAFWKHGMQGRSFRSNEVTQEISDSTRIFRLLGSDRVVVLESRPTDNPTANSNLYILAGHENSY

[2] = molecular target: SRPK1 (Homo sapiens, UniProt Q96SB4); experiment: biochemical; settings: read-out: % enzyme activity, 1 μM; Run 1, Run 2
Sequence of SRPK1 (Q96SB4 whole entry): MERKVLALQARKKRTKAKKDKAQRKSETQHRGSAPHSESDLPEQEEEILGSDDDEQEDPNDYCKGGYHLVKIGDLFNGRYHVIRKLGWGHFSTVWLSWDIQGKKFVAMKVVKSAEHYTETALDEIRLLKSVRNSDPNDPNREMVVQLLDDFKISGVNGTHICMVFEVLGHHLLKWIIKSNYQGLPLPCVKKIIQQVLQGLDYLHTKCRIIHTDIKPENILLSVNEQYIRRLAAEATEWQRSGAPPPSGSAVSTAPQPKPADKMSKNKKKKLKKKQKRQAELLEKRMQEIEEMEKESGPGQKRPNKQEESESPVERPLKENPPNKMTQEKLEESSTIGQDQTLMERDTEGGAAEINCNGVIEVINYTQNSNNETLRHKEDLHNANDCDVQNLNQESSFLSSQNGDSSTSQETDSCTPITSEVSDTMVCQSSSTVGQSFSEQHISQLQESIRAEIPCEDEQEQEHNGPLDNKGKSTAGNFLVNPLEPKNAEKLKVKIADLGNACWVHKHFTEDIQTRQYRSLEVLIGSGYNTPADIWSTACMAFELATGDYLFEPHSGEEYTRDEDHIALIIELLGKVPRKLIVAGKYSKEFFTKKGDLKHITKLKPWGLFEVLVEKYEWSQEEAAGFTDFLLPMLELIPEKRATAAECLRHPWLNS

[3] = molecular target: T2, SNRK (Homo sapiens, UniProt Q9NRH2); experiment: biochemical; settings: read-out: % enzyme activity, 1 μM; Run 1, Run 2
T2 sequence (Q9NRH2 1-765): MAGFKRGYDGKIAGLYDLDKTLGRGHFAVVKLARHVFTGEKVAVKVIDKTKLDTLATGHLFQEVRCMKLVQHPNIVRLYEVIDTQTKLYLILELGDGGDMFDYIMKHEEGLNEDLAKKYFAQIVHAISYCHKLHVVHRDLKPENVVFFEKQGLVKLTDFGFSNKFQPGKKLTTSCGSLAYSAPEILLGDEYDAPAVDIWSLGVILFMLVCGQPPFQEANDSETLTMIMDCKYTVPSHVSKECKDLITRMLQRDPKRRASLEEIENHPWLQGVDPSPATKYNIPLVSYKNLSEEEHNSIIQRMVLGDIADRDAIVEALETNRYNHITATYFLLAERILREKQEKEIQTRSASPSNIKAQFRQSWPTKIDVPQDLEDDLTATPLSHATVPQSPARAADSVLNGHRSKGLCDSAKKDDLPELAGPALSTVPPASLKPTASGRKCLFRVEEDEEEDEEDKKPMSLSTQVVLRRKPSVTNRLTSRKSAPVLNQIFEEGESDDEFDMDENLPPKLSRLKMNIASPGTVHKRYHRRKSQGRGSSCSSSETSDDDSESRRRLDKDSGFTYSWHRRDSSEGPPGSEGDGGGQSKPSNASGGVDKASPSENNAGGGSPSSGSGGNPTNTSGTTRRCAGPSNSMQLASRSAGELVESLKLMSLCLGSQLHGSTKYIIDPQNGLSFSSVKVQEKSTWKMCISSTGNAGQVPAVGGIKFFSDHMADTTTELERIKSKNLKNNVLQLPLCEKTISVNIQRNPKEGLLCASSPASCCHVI

[4] = molecular target: TESK1 (Homo sapiens, UniProt Q15569); settings: 1 μM; Run 1, Run 2
Sequence of TESK1 (Q15569 whole entry): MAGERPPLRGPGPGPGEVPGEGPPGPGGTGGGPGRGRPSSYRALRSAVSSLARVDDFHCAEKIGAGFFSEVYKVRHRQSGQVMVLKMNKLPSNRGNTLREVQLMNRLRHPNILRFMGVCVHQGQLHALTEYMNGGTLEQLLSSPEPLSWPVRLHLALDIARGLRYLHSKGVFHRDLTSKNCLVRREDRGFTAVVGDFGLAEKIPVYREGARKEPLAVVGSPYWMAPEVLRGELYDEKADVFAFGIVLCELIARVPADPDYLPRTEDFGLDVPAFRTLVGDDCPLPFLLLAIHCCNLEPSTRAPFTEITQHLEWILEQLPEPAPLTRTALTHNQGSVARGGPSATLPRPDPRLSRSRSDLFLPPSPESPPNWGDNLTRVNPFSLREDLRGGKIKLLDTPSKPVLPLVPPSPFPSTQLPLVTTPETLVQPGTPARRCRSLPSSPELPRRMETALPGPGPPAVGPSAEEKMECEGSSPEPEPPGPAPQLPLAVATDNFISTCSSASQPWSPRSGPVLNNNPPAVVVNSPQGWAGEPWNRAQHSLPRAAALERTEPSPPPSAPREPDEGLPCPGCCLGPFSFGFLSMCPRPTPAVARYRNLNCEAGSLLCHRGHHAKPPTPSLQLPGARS

[5] = human liver microsomal stability assay; format: in vitro ADME; settings: human, microsomes, pH 7.4, human liver microsomes, 60 min, 37 °C, read-out: HLM % Remaining at 1h
[6] = molecular target: T3, NEK5 (Homo sapiens, UniProt Q6P3R8); settings: 1 μM; Run 1, Run 2
T3 sequence (Q6P3R8 1-708): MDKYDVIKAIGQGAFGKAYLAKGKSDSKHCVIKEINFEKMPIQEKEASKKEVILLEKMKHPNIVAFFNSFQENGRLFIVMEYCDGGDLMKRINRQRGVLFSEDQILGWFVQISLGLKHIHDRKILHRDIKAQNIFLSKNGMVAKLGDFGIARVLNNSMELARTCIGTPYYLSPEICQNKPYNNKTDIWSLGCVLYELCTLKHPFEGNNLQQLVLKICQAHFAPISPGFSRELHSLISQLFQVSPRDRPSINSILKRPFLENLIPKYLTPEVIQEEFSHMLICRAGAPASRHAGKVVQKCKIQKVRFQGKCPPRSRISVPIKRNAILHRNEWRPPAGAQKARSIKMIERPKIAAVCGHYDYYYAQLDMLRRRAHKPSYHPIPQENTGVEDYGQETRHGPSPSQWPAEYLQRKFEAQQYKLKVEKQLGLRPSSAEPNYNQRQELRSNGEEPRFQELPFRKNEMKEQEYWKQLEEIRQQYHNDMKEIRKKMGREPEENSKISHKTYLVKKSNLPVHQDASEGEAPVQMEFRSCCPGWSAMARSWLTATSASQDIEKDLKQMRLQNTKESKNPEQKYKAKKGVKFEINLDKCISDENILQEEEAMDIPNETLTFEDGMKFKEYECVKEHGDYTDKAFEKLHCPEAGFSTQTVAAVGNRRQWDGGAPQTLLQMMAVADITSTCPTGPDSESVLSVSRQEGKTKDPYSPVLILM

[7] = molecular target: MNK1 (Homo sapiens, UniProt Q9BUB5); settings: 1 μM; Run 1, Run 2
Sequence of MNK1 (Q9BUB5 whole entry): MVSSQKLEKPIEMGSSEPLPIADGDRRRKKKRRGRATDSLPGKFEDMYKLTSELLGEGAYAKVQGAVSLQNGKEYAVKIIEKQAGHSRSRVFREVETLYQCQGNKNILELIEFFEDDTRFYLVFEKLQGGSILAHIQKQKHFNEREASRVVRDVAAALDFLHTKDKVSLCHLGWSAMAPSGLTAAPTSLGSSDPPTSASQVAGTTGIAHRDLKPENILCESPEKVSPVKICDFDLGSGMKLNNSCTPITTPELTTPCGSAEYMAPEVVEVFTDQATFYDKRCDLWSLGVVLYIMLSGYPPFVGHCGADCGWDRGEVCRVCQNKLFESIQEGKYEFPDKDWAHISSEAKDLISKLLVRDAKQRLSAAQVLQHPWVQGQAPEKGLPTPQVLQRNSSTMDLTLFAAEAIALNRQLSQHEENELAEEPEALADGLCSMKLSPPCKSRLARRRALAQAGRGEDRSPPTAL

[8] = molecular target: ABL2/ARG (Homo sapiens, UniProt P42684); experiment: biochemical; settings: read-out: % enzyme activity, 1 μM; Run 1, Run 2
Sequence of ABL2/ARG (P42684 whole entry): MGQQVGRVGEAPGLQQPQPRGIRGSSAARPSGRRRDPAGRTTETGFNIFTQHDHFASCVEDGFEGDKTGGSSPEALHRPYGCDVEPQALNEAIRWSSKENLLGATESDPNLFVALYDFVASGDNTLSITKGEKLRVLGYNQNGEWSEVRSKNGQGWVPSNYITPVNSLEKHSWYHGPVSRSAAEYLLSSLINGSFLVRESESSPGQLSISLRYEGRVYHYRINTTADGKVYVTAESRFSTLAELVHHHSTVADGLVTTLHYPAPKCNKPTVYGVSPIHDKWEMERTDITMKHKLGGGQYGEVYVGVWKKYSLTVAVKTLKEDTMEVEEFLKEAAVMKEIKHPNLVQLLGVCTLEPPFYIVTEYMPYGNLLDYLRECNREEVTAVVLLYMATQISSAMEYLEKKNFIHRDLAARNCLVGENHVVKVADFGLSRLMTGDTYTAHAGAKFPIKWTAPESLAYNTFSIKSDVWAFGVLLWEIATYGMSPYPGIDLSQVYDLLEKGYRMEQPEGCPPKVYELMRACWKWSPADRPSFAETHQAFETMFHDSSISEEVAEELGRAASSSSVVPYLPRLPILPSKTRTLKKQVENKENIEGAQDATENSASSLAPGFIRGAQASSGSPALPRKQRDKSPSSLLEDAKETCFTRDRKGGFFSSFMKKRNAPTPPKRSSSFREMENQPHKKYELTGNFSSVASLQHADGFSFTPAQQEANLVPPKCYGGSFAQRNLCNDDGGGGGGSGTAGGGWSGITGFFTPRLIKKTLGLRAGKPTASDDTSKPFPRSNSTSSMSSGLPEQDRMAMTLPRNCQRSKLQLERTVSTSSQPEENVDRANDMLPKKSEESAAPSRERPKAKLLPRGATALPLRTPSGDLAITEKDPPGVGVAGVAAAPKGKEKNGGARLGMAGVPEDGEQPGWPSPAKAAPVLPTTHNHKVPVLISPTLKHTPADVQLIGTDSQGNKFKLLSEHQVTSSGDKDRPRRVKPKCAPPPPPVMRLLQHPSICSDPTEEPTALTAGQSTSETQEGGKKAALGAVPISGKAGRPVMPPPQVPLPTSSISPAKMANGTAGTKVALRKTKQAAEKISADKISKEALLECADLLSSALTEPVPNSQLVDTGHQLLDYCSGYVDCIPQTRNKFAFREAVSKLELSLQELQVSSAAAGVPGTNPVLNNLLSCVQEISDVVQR

[9] = molecular target: TTBK2 (Homo sapiens, UniProt Q6IQ55); settings: 1 μM; Run 1, Run 2
Sequence of TTBK2 (Q6IQ55 whole entry): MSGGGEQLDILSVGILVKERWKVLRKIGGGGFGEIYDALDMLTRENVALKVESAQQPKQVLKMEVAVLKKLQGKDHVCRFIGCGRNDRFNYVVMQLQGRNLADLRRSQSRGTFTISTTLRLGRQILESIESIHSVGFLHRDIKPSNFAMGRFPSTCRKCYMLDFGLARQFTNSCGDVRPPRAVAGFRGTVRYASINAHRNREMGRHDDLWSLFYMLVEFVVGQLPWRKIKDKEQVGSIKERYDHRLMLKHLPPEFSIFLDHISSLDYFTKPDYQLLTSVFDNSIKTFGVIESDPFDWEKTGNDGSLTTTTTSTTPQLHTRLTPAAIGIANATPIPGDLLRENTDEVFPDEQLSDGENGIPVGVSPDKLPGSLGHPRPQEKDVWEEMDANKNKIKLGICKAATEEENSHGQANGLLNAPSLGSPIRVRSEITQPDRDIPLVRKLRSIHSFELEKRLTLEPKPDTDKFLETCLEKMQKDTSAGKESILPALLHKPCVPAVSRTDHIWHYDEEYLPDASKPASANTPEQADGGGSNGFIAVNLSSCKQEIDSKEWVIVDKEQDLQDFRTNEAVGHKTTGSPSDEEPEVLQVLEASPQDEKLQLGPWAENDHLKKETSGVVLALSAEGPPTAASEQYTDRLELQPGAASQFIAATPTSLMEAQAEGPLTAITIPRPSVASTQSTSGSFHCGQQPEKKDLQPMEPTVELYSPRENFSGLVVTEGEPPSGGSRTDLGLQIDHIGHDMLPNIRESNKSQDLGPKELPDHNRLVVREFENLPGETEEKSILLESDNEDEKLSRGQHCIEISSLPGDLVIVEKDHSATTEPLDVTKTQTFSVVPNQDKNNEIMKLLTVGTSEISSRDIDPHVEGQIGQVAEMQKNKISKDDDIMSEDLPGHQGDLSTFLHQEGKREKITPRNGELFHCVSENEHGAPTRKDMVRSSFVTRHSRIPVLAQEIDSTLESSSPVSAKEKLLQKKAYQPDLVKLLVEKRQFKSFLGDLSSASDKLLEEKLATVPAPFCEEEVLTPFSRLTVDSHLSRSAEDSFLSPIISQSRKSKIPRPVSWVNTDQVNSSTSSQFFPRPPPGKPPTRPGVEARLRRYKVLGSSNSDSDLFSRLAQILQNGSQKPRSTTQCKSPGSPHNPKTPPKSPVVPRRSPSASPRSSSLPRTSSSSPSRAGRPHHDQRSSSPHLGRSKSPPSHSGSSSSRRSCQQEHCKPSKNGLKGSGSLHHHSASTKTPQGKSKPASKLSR

[10] = molecular target: RSK4 (Homo sapiens, UniProt Q9UK32); experiment: biochemical; settings: read-out: % enzyme activity, 1 μM; Run 1, Run 2
Sequence of RSK4 (Q9UK32 whole entry): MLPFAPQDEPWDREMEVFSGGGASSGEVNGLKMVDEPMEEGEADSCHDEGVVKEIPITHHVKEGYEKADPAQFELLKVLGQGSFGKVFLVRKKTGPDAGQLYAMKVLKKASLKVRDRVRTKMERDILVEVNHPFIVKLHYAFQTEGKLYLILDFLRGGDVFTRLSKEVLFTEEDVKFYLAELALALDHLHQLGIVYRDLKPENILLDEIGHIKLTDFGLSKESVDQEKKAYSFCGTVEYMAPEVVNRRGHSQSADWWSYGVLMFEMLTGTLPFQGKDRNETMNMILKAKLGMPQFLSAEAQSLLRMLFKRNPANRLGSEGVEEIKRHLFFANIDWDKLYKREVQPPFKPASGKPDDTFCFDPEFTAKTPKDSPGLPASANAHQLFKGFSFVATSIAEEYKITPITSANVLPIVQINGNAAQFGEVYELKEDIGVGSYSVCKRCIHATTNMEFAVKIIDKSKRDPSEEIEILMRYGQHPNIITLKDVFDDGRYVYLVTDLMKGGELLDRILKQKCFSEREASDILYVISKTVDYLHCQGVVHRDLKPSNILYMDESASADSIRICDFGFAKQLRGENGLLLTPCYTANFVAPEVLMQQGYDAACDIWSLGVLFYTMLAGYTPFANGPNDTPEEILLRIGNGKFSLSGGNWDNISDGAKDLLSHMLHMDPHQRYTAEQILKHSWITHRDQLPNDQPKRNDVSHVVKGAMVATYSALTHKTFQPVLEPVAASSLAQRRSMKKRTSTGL

## COc1cc(-c2cncc(-c3ccc(N4CCN(C)CC4)cc3)c2C)cc(F)c1C(N)=O [Compound 26a, 2-Fluoro-6-methoxy-4-(4-methyl-5-(4-(4-methylpiperazin-1-yl)phenyl)pyridin-3-yl)benzamide]
[1]
  remaining activity at 1 µM: 88.4%
[2]
  remaining activity at 1 µM: 112%
[3]
  remaining activity at 1 µM: 105%
[4]
  % enzyme activity: 108.88%
[5]
  remaining at 1 h, 1 μM: 78%
[6]
  % enzyme activity: 97.51%
[7]
  % enzyme activity: 50.34%
[8]
  remaining activity at 1 µM: 97.3%
[9]
  % enzyme activity: 94.62%
[10]
  remaining activity at 1 µM: 96%

## COc1cc(-c2cncc(-c3ccc(N4C[C@@H](C)N(C)[C@@H](C)C4)cc3)c2C)cc(F)c1C(N)=O [Compound 26c, 2-Fluoro-6-methoxy-4-(4-methyl-5-(4-((3R,5S)-3,4,5-trimethylpiperazin-1-yl)phenyl)pyridin-3-yl)benzamide]
[1]
  remaining activity at 1 µM: 90.3%
[2]
  remaining activity at 1 µM: 89.3%
[3]
  remaining activity at 1 µM: 100%
[4]
  % enzyme activity: 105.23%
[5]
  remaining at 1 h, 1 μM: 47.5%
[6]
  % enzyme activity: 93.10%
[7]
  % enzyme activity: 70.81%
[8]
  remaining activity at 1 µM: 97.1%
[9]
  % enzyme activity: 96.48%
[10]
  remaining activity at 1 µM: 95.5%
